Results reported in US9399649B2, “Compounds for treating spinal muscular atrophy” (PTC Therapeutics Inc., priority 2012, dated 2016).

System: Smn protein
Test: Smn protein in tissues of neonatal Δ7 SMA mice
Type: in vivo
Conditions: neonatal SMA Δ7 homozygous knockout mice, IP QD for 7 days (PND 3 to PND 9), brain, spinal cord, muscle, FIG. 12
Procedure: The tissue samples in Safe-Lock tubes are weighed and the volume of RIPA buffer containing the protease inhibitor cocktail is added based on the weight to volume ratios for each type of tissue: Brain (50 mgmL), Muscle (50 mgmL) and Spinal Cord (25 mgmL).
Tissues are homogenized using the TissueLyzer by bead milling. 5 mm stainless steel beads are added to the sample and shaken vigorously for 5 minutes at 30 Hz in the TissueLyzer. The samples are then centrifuged for 20 minutes at 14,000×g in a microcentrifuge and the homogenates transferred to the PCR plate. The homogenates are diluted in RIPA buffer to approximately 1 mgmL for HTRF and approximately 0.5 mgmL for total protein measurement using the BCA protein assay. […] Fluorescence for each well of the plate at 665 nm and 620 nm is measured on an EnVision multilabel plate reader (Perkin-Elmer). The total protein in the tissue homogenate is measured using the BCA assay according to the manufacturer's protocol.
The normalized fluorescence signal is calculated for each sample, Blank and vehicle control well by dividing the signal at 665 nm by the signal at 620 nm. Normalizing the signal accounts for possible fluorescence quenching due to the matrix effect of the tissue homogenate. […] The ΔF value for each tissue sample well is divided by the total protein quantity (determined using the BCA assay) for that tissue sample. […]

Cc1cn2cc(-c3cc4ccc(N5CCN(C)CC5)cc4c(=O)o3)nc2c(C)n1 [Cpd 65, 3-(6,8-dimethylimidazo[1,2-a]pyrazin-2-yl)-7-(4-methylpiperazin-1-yl)-1H-isochromen-1-one]
total protein normalized Smn level in tissues: dose dependently increased
